Patent publication US9676715B2, “Bis-indolic derivatives, a process for preparing the same and their uses as a drug” (UNIVERSITE JOSEPH FOURIER, priority 2011, dated 2017)

Key:
[1] = system: S. epidermidis ATCC 12228; experiment: MIC, microdilution method (9.1); format: cell-based, Staphylococcus epidermidis; settings: Staphylococcus epidermidis, ATCC12228, read after 18 h, read-out: MIC
Method in brief: (§1)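 Mueller Hinton broth cultures at 5×10^5 CFU/ml final were exposed to doubling concentrations of compound from 0.50 to 128 mg/L. Incubation: 37° C., ambient atmosphere. Method per CLSI M07-A8; blood supplement and CO2 reserved for fastidious organisms.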

S. aureus ATCC 29213 = experiment: MIC, microdilution method (9.1); format: cell-based, Staphylococcus aureus; settings: Staphylococcus aureus, ATCC29213, read after 18 h, read-out: MIC
Method in brief: as §1

S. aureus ATCC 25923 = experiment: MIC, microdilution method (9.1); format: cell-based, Staphylococcus aureus; settings: Staphylococcus aureus, ATCC25923, read after 18 h, read-out: MIC
Method in brief: as §1

[2] = system: Listeria innocua CIP 80.11; experiment: MIC, microdilution method (9.1); format: cell-based; settings: CIP80, 18 h, read-out: MIC
Method in brief: as §1

[3] = system: Haemophilus influenzae ATCC 49766; experiment: MIC, microdilution method (9.1); format: cell-based; settings: ATCC49766; Haemophilus influenzae ATCC 49766; 10% sheep blood, 5% CO2; 18 h; read-out: MIC
Method in brief: (§2)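 Standard CLSI broth microdilution. Test range 0.50-128 mg/L (final), doubling steps.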

[4] = system: Pseudomonas aeruginosa CIP 5933; experiment: MIC, microdilution method (9.1); format: cell-based; settings: CIP5933, 18 h, read-out: MIC
Method in brief: as §1

[5] = system: Enterobacter cloacae ATCC13047; experiment: MIC, microdilution method (9.1); format: cell-based; settings: 18 h
Method in brief: as §1

S. pneumoniae ATCC 49619 = experiment: MIC, microdilution method (9.1); format: cell-based; settings: Streptococcus pneumoniae, ATCC49619, 10% sheep blood, 5% CO2, 18 h
Method in brief: as §2

[6] = system: Acinetobacter baumanii ATCC 19606; experiment: MIC, microdilution method (9.1); format: cell-based; settings: Acinetobacter baumannii, ATCC19606, 18 h, read-out: MIC
Method in brief: as §1

[7] = system: Klebsiella pneumoniae API ATCC 35657; experiment: MIC, microdilution method (9.1); format: cell-based; settings: ATCC35657, 18 h, read-out: MIC
Method in brief: as §1

[8] = system: Escherichia coli ATCC 25922; experiment: MIC, microdilution method (9.1); format: cell-based; settings: ATCC25922, 18 h
Method in brief: as §1

[9] = system: Serratia marcescens CIP 103551; experiment: MIC, microdilution method (9.1); format: cell-based; settings: CIP103551, 18 h
Method in brief: as §1

[10] = system: Bacillus subtilis CIP 5262; experiment: MIC, microdilution method (9.1); format: cell-based; settings: CIP5262, 18 h, read-out: MIC
Method in brief: as §1

[11] = system: HCT116 (human colon tumor); experiment: In vitro cytotoxicity; format: cell-based; settings: read-out: % of cellular growth inhibition
Description: (§3) In vitro cytotoxicity was assayed on three cell lines—KB (human mouth carcinoma), MCR5 (human lung fibroblast) and HCT116 (human colon tumor). Results are presented in table IV as % of cellular growth inhibition in presence of 10^−5 M and 10^−6 M of the tested bis-indolic derivatives.

[12] = system: MRC5 (human lung fibroblast); experiment: In vitro cytotoxicity; format: cell-based; settings: read-out: % of cellular growth inhibition
Description: as §3

[13] = system: KB (human mouth carcinoma); experiment: In vitro cytotoxicity; format: cell-based; settings: read-out: % of cellular growth inhibition
Description: as §3

[14] = system: S. agalactiae (group B) ATCC 12400; experiment: MIC, microdilution method (9.1); format: cell-based, Streptococcus agalactiae; settings: Streptococcus agalactiae, ATCC12400, 18 h, read-out: MIC
Method in brief: as §1

S. mitis CIP 103335 = experiment: MIC, microdilution method (9.1); format: cell-based, Streptococcus mitis; settings: Streptococcus mitis, CIP103335, 18 h, read-out: MIC
Method in brief: as §1

E. faecium CIP 54.32 = experiment: MIC, microdilution method (9.1); format: cell-based, Enterococcus faecium; settings: Enterococcus faecium, CIP54, 18 h, read-out: MIC
Method in brief: as §1

[15] = system: S. pyogenes (group A) CIP 104226; experiment: MIC, microdilution method (9.1); format: cell-based, Streptococcus pyogenes; settings: Streptococcus pyogenes, CIP104226, 18 h, read-out: MIC
Method in brief: as §1

[16] = system: Staphylococcus aureus 1199B (overexpression of the NorA efflux pump); experiment: Efflux pump inhibition assay with sub-inhibitory ciprofloxacin; format: cell-based; settings: S. aureus 1199B
Description: (§4) The efflux pump inhibition potential of the bis-indolic derivatives was tested using two steps.
(§5) The following experimental protocol was used: indolic derivatives (initially solubilised in DMSO at 10 mg/mL) were dispensed in a 96-wells microplate by two fold serial dilutions in Muller-Hinton medium (MH, Bio Rad) using a Biomek 2000 (Beckman) handling robot. 100 μL of the bacterial inoculum (an overnight culture at 37° C. in 5 mL MH diluted 100-fold) was then added in each well. The total volume was 200 μL in each well and the final bacteria concentration 10^6 CFU/mL (CFU: colony forming unit). The highest final indolic derivative concentration was 128 mg/L. Growth was assayed with a microplate reader by monitoring absorption at 620 nm after 1, 2, 5, 7 and 24 h incubation at 37° C. In addition, the plates were read visually after 24 hours incubation. Cultures containing 5 μL DMSO were used as growth controls. In addition, two controls containing a sub-inhibitory or a inhibitory antibiotic concentration for the tested strain were performed. The antibiotics used were ampicillin (0.5 and 32 μg/mL) for E. coli, kanamycin (0.5 and 16 μg/mL) for S. aureus ATCC 25923, ciprofloxacin (4 and 64 mg/L) for S. aureus 1199B, ciprofloxacin (0.5 and 2 mg/L) for S. aureus K2378. All experiments were performed in duplicate.
(§6) Efflux pump inhibition assays were then performed against resistant Staphylococcus aureus strains SA 1199B and SA K2378 for bis-indolic derivatives. […] The minimal inhibitory concentration (MIC) of the bis-indolic compound allowing a complete inhibition of the bacterial growth in the presence of ciprofloxacin was determined.

[17] = system: Staphylococcus aureus K2378 (overexpresses the efflux pump NorA from a multicopy plasmid); experiment: as above; format: cell-based; settings: S. aureus K2378; in the presence of ciprofloxacin 0.5 mg/L
Description: as §4, §5, §6

S. pneumoniae ATCC 6303 = experiment: MIC, microdilution method (9.1); format: cell-based, Streptococcus pneumoniae; settings: Streptococcus pneumoniae, ATCC6303, 10% sheep blood, 5% CO2, 18 h, read-out: MIC
Method in brief: as §2

E. faecalis ATCC 29212 = experiment: MIC, microdilution method (9.1); format: cell-based, Enterococcus faecalis; settings: Enterococcus faecalis, ATCC29212, 18 h, read-out: MIC
Method in brief: as §1

CC(C)(C)OC(=O)NCC(NC(=O)c1c[nH]c2ccccc12)c1c[nH]c2ccccc12 (centres unmarked) [Compound 3a, tert-Butyl (2-(1H-indol-3-yl)-2-(1H-indole-3-carboxamido)ethyl)carbamate]
MIC [1]: > 128 mg/L
MIC (S. aureus ATCC 29213): > 128 mg/L
MIC (S. aureus ATCC 25923): > 128 mg/L
MIC [2]: > 128 mg/L
MIC [3]: > 128 mg/L
MIC [4]: > 128 mg/L
MIC [5]: > 128 mg/L
MIC (S. pneumoniae ATCC 49619): > 128 mg/L
MIC [6]: > 128 mg/L
MIC [7]: > 128 mg/L
MIC [8]: > 128 mg/L
MIC [9]: > 128 mg/L
MIC [10]: > 128 mg/L
inhibition at 10 µM ([11]; HCT-116, 10^−5 M): 22 ± 5%
inhibition at 1 µM ([11]; HCT-116, 10^−6 M): 11%
inhibition at 10 µM ([12]; 10^−5 M): 14 ± 1%
inhibition at 1 µM ([12]; 10^−6 M): 2%
inhibition at 10 µM ([13]; 10^−5 M): 18 ± 1%
inhibition at 1 µM ([13]; 10^−6 M): 16%
MIC [14]: > 128 mg/L
MIC (S. mitis CIP 103335): > 128 mg/L
MIC (E. faecium CIP 54.32): > 128 mg/L
MIC [15]: > 128 mg/L
MIC, mg/L (Ciprofloxacin concentration, mg/L) ([16]; in the presence of ciprofloxacin 1 mg/L): 2 (1) mg/L
MIC, mg/L (Ciprofloxacin concentration, mg/L) ([16]; in the presence of ciprofloxacin 2 mg/L): 0.5 (2) mg/L
MIC, mg/L (Ciprofloxacin concentration, mg/L) ([16]; in the presence of ciprofloxacin 4 mg/L): 0.25 (4) mg/L
MIC, mg/L (Ciprofloxacin concentration, mg/L) [17]: 4 (0.5) mg/L
MIC (S. pneumoniae ATCC 6303): > 128 mg/L
MIC (E. faecalis ATCC 29212): > 128 mg/L
